Measurements published in PubChem BioAssay AID179 (DTP/NCI, 2004).
Activity calls are given as the source filed them.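 The calls were made as follows: active = compounds giving half or more protection of infected cells from virus-caused growth loss, again on retest; inactive = the rest.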 Where a SMILES comes first, the peptide text is derived from it. [ ]: non-standard residue; d: D form. The star is where a group is joined. ξ: configuration not given here. ΔPro = O=C(O)[CH]1C=CCN1; ξD = NC(CC(=O)O)C(=O)O; Ac3c = NC1(C(=O)O)CC1; Boc = CC(C)(C)OC(=O)*; OtBu = CC(C)(C)O*

Tested on: CEM cells HIV-1 protection, formazan growth assay
Assay: NCI AIDS Antiviral Assay
Settings: for IC50: measured here: growth of uninfected CEM cells
Procedure, shortened: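 Category rules: moderately active means at least 50% protection on retest, and confirmed active means 100% protection reproducibly. The underlying data came from a formazan growth assay in HIV-1-infected CEM cells.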

Row | SMILES | EC50 | IC50 | outcome
1 | COC(=O)C(=O)C1CCCC(c2nc3n(c2O)C(=N)N=N3)C1=O (stereo not drawn) | > 776 µM | > 776 µM | 
2 | S=C(S)N1CCNCC1 |  |  | inactive
3 | O=c1c2ccccc2nc(-c2ccccc2Cl)n1NC1OC(CO)C(O)C(O)C1O (stereo not drawn) |  |  | inactive
4 | CSc1nc2c(nc(N)n2C2OC(CO)C(O)C(O)C2O)c(=O)n1C (stereo not drawn) |  |  | inactive
5 | COc1ccc(Cl)cc1NC(=O)O/N=C(\Cl)C(C)C | > 20 µM | 2.51 µM | 
6 | N#CCCC1(CCC#N)CCCCCCCCC(CCC#N)(CCC#N)C(O)C1O (stereo not drawn) | > 200 µM | > 200 µM | 
7 | FC(F)(F)C1(C(F)(F)F)C2CCC3(CC(F)(F)C(F)(F)S3)C1C2 (stereo not drawn) | > 200 µM | > 200 µM | 
8 | CC12CCC3C(CCC4=CC(=O)C=CC43C)C1CC(O)C(=O)O2 (stereo not drawn) | > 200 µM | > 200 µM | 
9 | COc1ccc2oc3c4c2c1CCC4CCC3=O (stereo not drawn) |  |  | inactive
10 | C[C@@H]1OC(=O)N2CCCC(=C3SCCCS3)C12 (stereo partly drawn) |  |  | inactive
11 | CC(=O)OCC1OC(n2c(=S)n(-c3ccccc3)c(=O)c3ccccc32)C(OC(C)=O)C(OC(C)=O)C1OC(C)=O (stereo not drawn) | > 32.4 µM | > 32.4 µM | 
12 | NCC1OC(OC2C(N)CC(N)C(O)C2OC2OC(CO)C(O)C2O)C(N)C(O)C1O (stereo not drawn) |  |  | inactive
13 | COC(=O)C1(NC(=O)C(CC(=O)OC(C)(C)C)NC(=O)OC(C)(C)C)CC1 (stereo not drawn) (Boc-[ξD](OtBu)-[Ac3c]-OMe) | > 200 µM | > 200 µM | 
14 | CC1(C)OC2OC(C(COC(=O)c3ccccc3)OC(=O)c3ccccc3)C(F)C2O1 (stereo not drawn) | > 43.7 µM | > 43.7 µM | 
15 | O=C(O)c1ccc([As](=O)(O)O)c([N+](=O)[O-])c1 | > 200 µM | > 200 µM | 
16 | COc1cc(/C=N\NC(=O)C[N+](C)(C)C)cc(OC)c1OC | > 200 µM | > 200 µM | 
17 | CO/C(=N\N=C\c1cc(OC)ccc1OC)c1ccncc1 | > 24 µM | > 24 µM | 
18 | N#Cc1c(/C=C/c2ccccc2)c2c([nH]c1=S)CCCCC2 | 339 µM | 501 µM | 
19 | CSc1c(C(C)=O)c(O)n(-c2ccc(C)cc2)c(=O)c1C#N | > 200 µM | 63.1 µM | 
20 | COC(=O)CC1C2CC3C(C2=O)C13 (stereo not drawn) | > 200 µM | > 200 µM | 
21 | C/C(=N\NC(=S)NCCNC(=S)N/N=C(\C)c1ccccn1)c1ccccn1 | > 200 µM | 3.39 µM | 
22 | N#CNC1=NC(Cc2ccccc2)C(=O)N1CCc1c[nH]c2ccccc12 (stereo not drawn) | > 200 µM | 31.6 µM | 

Row | SMILES | EC50 | IC50 | outcome
23 | COc1cc(-c2[o+]c3cc(O)cc(O)c3cc2O)cc(O)c1O | > 200 µM | 15.1 µM | 
24 | O=c1nc2[nH]c3c4cccc5cccc(c3nc2c(=O)[nH]1)c54 | > 200 µM | 0.603 µM | 
25 | CC(=O)c1ccc(N=Nc2ccc3nonc3c2N)cc1 | > 200 µM | > 200 µM | 
26 | COc1cccc(CN2CC(C)N(N=Cc3c4c(O)c5c(O)c(C)c6c(c5c3O)C(=O)C(C)(O/C=C/C(OC)C(C)C(OC(C)=O)C(C)C(O)C(C)C(O)C(C)/C=C/C=C(\C)C(=O)N4)O6)C(C)C2)c1 (stereo not drawn) | > 200 µM | 7.24 µM | 
27 | Cc1cc(O)c(C=NC(=S)c2ccccc2)c(=O)o1 | > 200 µM | > 200 µM | 
28 | CCOc1ccccc1/C=C1\NC(=O)NC1=O | > 200 µM | > 200 µM | 
29 | COc1ccc(C[C@H](N)C(=O)N2C[C@@H](CO)C[C@@H](n3cnc4c(N(C)C)ncnc43)C2)cc1 | > 275 µM | > 275 µM | 
30 | Clc1ccc(-c2nnc(C34CC5CC(CC(C5)C3)C4)o2)cc1 | > 200 µM | > 200 µM | 
31 | CC(C)C(N=C1CC2CCC1(C(=O)Nc1ccccc1O)C2(C)C)c1ccccc1 (stereo not drawn) | 20 µM | 32.4 µM | 
32 | CN(C)c1cc(CNCCSC(C)(C)C)nc(CNCCSC(C)(C)C)c1 | > 200 µM | 4.57 µM | 
33 | CCN(CC)Cc1c2c(O)c3c(O)c(C)c4c(c3c1O)C(=O)C(C)(O/C=C/C(OC)C(C)C(OC(C)=O)C(C)C(O)C(C)C(O)C(C)/C=C/C=C(\C)C(=O)N2)O4 (stereo not drawn) | > 200 µM | 33.1 µM | 
34 | CCCC1OC(CCC)C2CCCOC2O1 (stereo not drawn) | > 200 µM | > 200 µM | 
35 | CC(=O)OC(C)(C)/C=C/C(=O)[C@](C)(O)[C@H]1[C@H](O)C[C@@]2(C)[C@@H]3CC=C4[C@@H](C[C@H](O)C(=O)C4(C)C)[C@]3(CO)C(=O)C[C@]12C | > 4.37 µM | 0.129 µM | 
36 | COc1ccc(C2c3cc4c(cc3OC(O)(CO)C2C(=O)O)OCO4)c(OC)c1OC (stereo not drawn) (tested in a mixture with another compound) |  |  | inactive
37 | N/C(=N\NS(=O)(=O)c1ccccc1)Oc1ccc(Br)cc1Br | > 112 µM | > 112 µM | 
38 | O=[As]c1ccc(C(=O)O)cc1 (stereo not drawn) | > 1170 µM | 245 µM | 
39 | O=C(CC(=O)Nc1cccc(C(=O)O)c1)Nc1cccc(C(=O)O)c1 | > 200 µM | > 200 µM | 
40 | CCOC(=O)/C(C#N)=C/c1cccc([N+](=O)[O-])c1 | > 21.4 µM | > 21.4 µM | 
41 | COC1CC(OC2C(C)OC(OC3C(C)OC(OC4C(C)OC(O[C@H]5CC[C@@]6(C)C(=CC[C@]7(O)[C@@H]6C[C@@H](OC(=O)/C=C/c6ccccc6)[C@@]6(C)[C@]7(O)CC[C@@]6(O)C(C)=O)C5)CC4OC)CC3OC)CC2OC)OC(C)C1O (stereo partly drawn) | > 200 µM | 21.9 µM | 
42 | CCCCCC[C@@H]1CCC2C(CO)[C@@H](O)CC[C@@H]2C1 (stereo partly drawn) | > 37.2 µM | 28.2 µM | 
43 | N=C(N)C1CN(CCc2c[nH]c3ccccc23)C(=O)NC1=O (stereo not drawn) | > 200 µM | > 200 µM | 
44 | NC1=NC2(CS1)CSC(N)=N2 | > 263 µM | > 263 µM | 

Row | SMILES | EC50 | IC50 | outcome
45 | Nc1nc(N)c2cc(-c3ccccc3)cnc2n1 | > 200 µM | 15.8 µM | 
46 | CN(C)C(=S)Nc1nnc(Nc2ccccc2)s1 |  |  | inactive
47 | CNC(=O)NC1ON=C(c2ccccc2)C1C(=O)NC (stereo not drawn) | > 200 µM | 182 µM | 
48 | Cc1cn(C2CC(N=[N+]=[N-])C(COC(=O)C3CNC(=O)N3)O2)c(=O)[nH]c1=O (stereo not drawn) |  | 93.3 µM | active
49 | COC(=O)C1=CC[C@@H]2C(C(=O)O)=CO[C@@H](OC3OC(CO)C(O)C(O)C3O)[C@H]12 (stereo partly drawn) | > 200 µM | > 200 µM | 
50 | C[N+](C)(C)CC1Cc2ccccc2C1=O (stereo not drawn) |  |  | inactive
51 | O=c1[nH]c2cc(Cl)ccc2c2ccc(Cl)cc12 | > 200 µM | > 200 µM | 
52 | Nc1c(S(=O)(=O)O)[nH]c(=O)[nH]c1=O | > 200 µM | > 200 µM | 
53 | O=c1[nH]c(=O)n(C2OC(CO)CC2F)cc1F (stereo not drawn) | > 200 µM | > 200 µM | 
54 | Clc1ccc(N=c2ccc3ccccc3[oH+]2)cc1.Clc1ccc(N=c2ccc3ccccc3[oH+]2)cc1.[Co] |  |  | inactive
55 | CC(=O)Nc1cc(C(=O)Nc2cc(C(=O)Nc3cc(C(=O)Nc4cc(C(=O)Nc5cc(C(=O)NCCC(=O)NCCCN(C)C)n(C)c5)n(C)c4)n(C)c3)n(C)c2)n(C)c1 | > 174 µM | 26.9 µM | 
56 | C=Cc1cc[n+](CCCCCCCCCCCC)cc1 | > 174 µM | 102 µM | 
57 | COc1cc2c(c(OC)c1OC)-c1ccc(OC)c(=O)cc1C(NC(=O)COc1ccccc1)CC2 (stereo not drawn) | > 0.2 µM | 0.00251 µM | 
58 | CC(=N\N=C(N)N)/C(N=Nc1ccc(S(N)(=O)=O)cc1)=N\N=C(N)N | > 200 µM | 1.58 µM | 
59 | CC(C)(C)NC(=O)Nc1ccccn1 | > 200 µM | > 200 µM | 
60 | Cc1ccc(-n2c(CSc3ccc(Cl)cc3)nnc2SCc2nc3ccccc3[nH]2)cc1 | > 200 µM | 120 µM | 
61 | CSc1cc(Cl)c(C)cc1S(=O)(=O)n1cc[nH]c1=O | > 200 µM | > 200 µM | 
62 | CCCCCCCC/C=C\CCCCCCCC(=O)N(C)N(C)C(=O)CCCCCCC/C=C/CCCCCCCC | > 200 µM | > 200 µM | 
63 | CC1=CC(=O)N(n2c(Cc3ccc(Cl)cc3)n[nH]c2=O)C1=O | > 200 µM | > 200 µM | 
64 | O=C1/C(=C/c2ccc(Br)s2)NC(=S)N1CN1CCCCC1 | > 200 µM | 38 µM | 
65 | COc1cc(C(=O)C2CC3(CCC2(O)c2cc(OC)c(OC)c(OC)c2)CC(=O)Nc2ccccc2C3=O)cc(OC)c1OC (stereo not drawn) | > 200 µM | > 200 µM | 
66 | Nc1nc(N)c2nc(-c3ccco3)cnc2n1 |  |  | inactive

Row | SMILES | EC50 | IC50 | outcome
67 | Cc1ccc(/C=C2\NC(=S)NC2=O)cc1 | > 200 µM | > 200 µM | 
68 | O=C(Nc1nc2ccccc2s1)c1cc([N+](=O)[O-])ccc1Cl | > 200 µM | 3.8 µM | 
69 | Cc1cc(C)nc(/C(=N\NC(N)=O)C(=O)Nc2nc3ccc(C)cc3s2)c1 | > 661 µM | > 661 µM | 
70 | CC(C)=CCN1Cc2cccc([N+](=O)[O-])c2NC[C@@H]1C | > 85.1 µM | > 85.1 µM | 
71 | CC1(C)OC(=O)C(=Cc2ccc(O)cc2)C(=O)O1 | > 1000 µM | 550 µM | 
72 | Cn1c(C(O)(Cc2ccccn2)Cc2ccccn2)cc2ccccc21 | > 97.7 µM | 72.4 µM | 
73 | O=c1ccn(C2OC(CO)C(F)C2F)c(=O)[nH]1 (stereo not drawn) | > 501 µM | > 501 µM | 
74 | Clc1ccc2noc(-c3ccccc3)c2c1 | > 22.9 µM | > 22.9 µM | 
75 | CCN1CCC(O)(/C=C/c2ccc(Cl)c(Cl)c2)C(C(=O)/C=C/c2ccc(Cl)c(Cl)c2)C1 (stereo not drawn) | > 25.1 µM | 0.513 µM | 
76 | Cn1c(=O)cc(N2CCCC2)[nH]c1=O | > 200 µM | > 200 µM | 
77 | Oc1cccc2c(Br)ccnc12 | > 20 µM | 5.13 µM | 
78 | C[Si](C)(OCCS(=O)(=O)O)C1S(=O)(=O)OCCOS1(=O)=O | > 200 µM | 60.3 µM | 
79 | Clc1cc(Cl)cc(C2SCc3nc4ccccc4n32)c1 (stereo not drawn) |  |  | inactive
80 | NC(N)=N/N=C/c1c(-c2ccc(Cl)cc2)nc2sc(Cl)cn12 | > 20 µM | 1.07 µM | 
81 | O=C(O)C1C=CCN1C(=O)C1C=CCN1C(=O)C1C=CCN1 (stereo not drawn) (H-[ΔPro]-[ΔPro]-[ΔPro]-OH; configuration not given here) | > 200 µM | 166 µM | 
82 | OCC(O)C(O)C(O)C(O)c1nc2ccccc2s1 (stereo not drawn) | > 126 µM | 97.7 µM | 
83 | COC(=O)CCCC=C(c1cc(C)c(OC)c(C(=O)OC)c1)c1cc(C)c(OC)c(C(=O)OC)c1 | 2.4 µM | 89.1 µM | 
84 | COC(=O)CC(NC(=O)OCc1ccccc1)C(C(C)=O)C(=O)OCc1ccccc1 (stereo not drawn) | > 75.9 µM | > 75.9 µM | 
85 | Cc1cc(NCCCCCCCNc2cc(C)nc3cc(N)ccc23)c2ccc(N)cc2n1 | 5.89 µM | 8.71 µM | 
